# Where two headings read alike, the source gives them in different places. Where a SMILES comes first, the peptide text is derived from it. [ ]: non-standard residue; d: D form. The star is where a group is joined. X1 = O=C(COc1c(-c2csc(N3CCOCC3)n2)ccc(F)c1F)NCCCCCCN*; X2 = Fc1ccc(-c2csc(N3CCOCC3)n2)c(OCCOCCOCCN*)c1F; Dip = N[C@H](C(=O)O)C(c1ccccc1)c1ccccc1; Chg = N[C@H](C(=O)O)C1CCCCC1; NMeA = CN[C@@H](C)C(=O)O
# Tested on: 22Rv1
# Experiment: 22Rv1 cell count decrease
# Type: cell-based
# Conditions: Homo sapiens
# Description: The human prostate cancer cell line, 22Rv1 has been reported to express a high level of AR-V7. […] Standard culture media was RPMI-1640 supplemented with 10% fetal bovine serum. The test compound initially was dissolved in DMSO at 50 mM. This stock solution was then diluted as needed for the indicated concentrations. […]
# [1] = read-out: 22Rv1 cell count decrease at 10 uM for 48 hours, 22Rv1 cells, 10 uM, read-out: 22Rv1 cell count decrease at 10 uM
Structure (SMILES),inhibition at 10 µM [1] [%],"inhibition at 10 µM (22Rv1, read-out: 22Rv1 cell count decrease at 10 uM for 48 hours) [%]"
"CN[C@@H](C)C(=O)N[C@H](C(=O)N1CCC[C@H]1C(=O)N[C@H](C(=O)NCCCCCCNC(=O)COc1c(-c2csc(N3CCOCC3)n2)ccc(F)c1F)C(c1ccccc1)c1ccccc1)C1CCCCC1 [Example 26, (S)-1-((S)-2-cyclohexyl-2-((S)-2-(methylamino)propanamido)acetyl)-N-((S)-1-((6-(2-(2,3-difluoro-6-(2-morpholinothiazol-4-yl)phenoxy)acetamido)hexyl)amino)-1-oxo-3,3-diphenylpropan-2-yl)pyrrolidine-2-carboxamide] (H-[NMeA][Chg]P[Dip]-X1)",> 50,–
"CN[C@@H](C)C(=O)N[C@H](C(=O)N1CCC[C@H]1C(=O)N[C@H](C(=O)NCCOCCOCCOc1c(-c2csc(N3CCOCC3)n2)ccc(F)c1F)C(c1ccccc1)c1ccccc1)C1CCCCC1 [Example 24, (S)-1-((S)-2-cyclohexyl-2-((S)-2-(methylamino)propanamido)acetyl)-N-((S)-1-((2-(2-(2-(2,3-difluoro-6-(2-morpholinothiazol-4-yl)phenoxy)ethoxy)ethoxy)ethyl)amino)-1-oxo-3,3-diphenylpropan-2-yl)pyrrolidine-2-carboxamide] (H-[NMeA][Chg]P[Dip]-X2)",–,> 50
"O=C1CCC(N2C(=O)c3cccc(NCCCCCCNC(=O)c4cn(-c5csc(N6CCOCC6)n5)cn4)c3C2=O)C(=O)N1 (stereo not drawn) [Example 32, N-(6-((2-(2,6-dioxopiperidin-3-yl)-1,3-dioxoisoindolin-4-yl)amino)hexyl)-1-(2-morpholinothiazol-4-yl)-1H-imidazole-4-carboxamide]",0 to 20,–

# Reference: patent US11787778B2, “Bi-functional compounds and methods for targeted ubiquitination of androgen receptor” (MONTELINO THERAPEUTICS, INC., priority 2019, dated 2023)
